Experimental data published in US4435404A, “Carbostyril derivatives” (priority 1980, dated 1984).

Experiments:
[1] = tested on: arterial papillary muscle; test: Positive inotropic effect, blood-perfused arterial papillary muscle; set-up: species or system dog; settings: Canis lupus familiaris, into septal artery, read-out: Increasing of inotropic
Method: Positive inotropic effects of the novel carbostyril derivatives of the present invention were tested according to a method described by M. Endoh and K. Hashimoto, in "American Journal of Physiology", Vol. 218, No. 5, May, 1970, pages 1459-1463 as follows:
Adult bastard dogs of both sexes, weighing 8-12 kg, were anesthetized with pentobarbital-Na at a rate of 30 mg/kg by intraveneous administration. After another intraveneous administration of sodium heparin, 1,000 μ/kg, the test dog was sacrificed by blood letting. The heart of the dog was excised and immediately plunged into Locke's solution, then the arterial papillary muscle was excised out with interventicular septum. The septal artery was carefully isolated and cannulated with a polyethylene cannula and was ligated with thread. Septal arteries those of connected to other than the arterial papillary muscle were ligated with thread. Next, the donor adult bastard dogs, weighing 18-27 kg, were anesthetized with pentabarbital-Na (30 mg/kg, intraveneous injection), and further treated with intravenous administration of sodium heparin (1,000 μ/kg). The arterial papillary muscle was perfused through the septal artery being cannulated with the polyethylene cannula with the blood conducted from the carotid artery of the donor dog by aid of Peristaric pump. The perfusion pressure was maintained at 100 mmHg constantly. Then the muscle was electrically stimulated by an electronic stimulator through bipolar electrodes in contact with the interventicular septum. The strength of stimulation was 2 X (the minimum value for appearing the action), frequency 2 Hz, pulse duration 2 msec.
The isometric contraction generated was measured through a force-displacement transducer. The amount of blood flow in the coronary arteries was measured by determining the amount of the blood flow conducted to the septal artery by electromagnetic flow meter. All the data were recorded on an ink-writing recorder.
A solution containing a compound to be tested was injected into the septal artery through the rubber tube connected close to the shunk of the polyethylene cannula, in an amount of 10-30 μl.
The results obtained is shown in Table 4, in which the increasement (%) of contraction is indicated as the ratio of the contractions before and after the administration (injection) of the solution containing the test compound.

Wistar strain male rats = test: Test of increasing effect of heart rate; format: in vivo, rat; settings: 30 mg/kg oral, 60 minutes after the administration
Method: Wistar strain male rats, having 180-230 g of body weight, were abstained from food for 24 hours, the electrocardiograms introduced from the second induction period were recorded on oscillograph. The heart rate was calculated from the electrocardiograms by observing them for 10 seconds several times. […] 60 Minutes after the administration, the heart rate was measured and increasing effect of the heart rate was calculated. Generally, an average heart rate of an usual Wistar strain male rat is about 320 beat/minute.

[2] = tested on: collagen-induced aggregation in rabbit platelet; test: Inhibition effect on collagen-induced aggregation in rabbit platelet; format: cell-based; settings: Oryctolagus cuniculus, Platelet, read-out: Inhibition effect on collagen-induced aggregation
Outline: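 Citrated rabbit PRP was diluted with PPP to 300,000 platelets/mm^3 for the ADP test or 450,000/mm^3 for the collagen test. Samples were preincubated with compound for 1 min at 37 °C before adding inducer: ADP solution at 7.5×10^-5 M (stock) or collagen supernatant. Light-transmittance aggregation was recorded at 1,100 rpm stirring, and percent inhibition was calculated against control aggregation rate, with acetylsalicylic acid as reference.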

[3] = tested on: Gold blatt type renoprival hypertension rats (RHR); test: Hypotensive effect, Tail-cuff method, RHR; format: in vivo, rat; settings: 30 mg/kg oral, mean value ± standard deviation
Method: Hypotensive effect of the compounds were measured by determining the maximum blood pressure of the test animals according to a procedure of Tail-cuff method.
Test animals used were the following two types.
(1) Gold blatt type renoprival hypertension rats (RHR)
Wistar strain male rats having, 160-180 g of body weight, were anesthetized with ether and the left-side renal artery was pluged with a silver clip having 0.2 mm inside diameter, while the right-side renal artery was kept as it was without operation. Four (4) weeks after the operation, rats having the maximum blood pressure over 150 mmHg were selected and used as test animals which were abstained from food for overnight.
Each of compounds to be tested were administered orally and the blood pressure was measured before the administration and 1, 2, 4, 6 and 8 hours after the administration. The blood pressure was measured by using Recorder (Rectihoriz type 8S, San-ei Instrument) and Electrosthygmomanometer PE-300 (Macro Bio-systems, Houston, Tex.).

Question: `O=C(CCCOc1ccc2[nH]c(=O)ccc2c1)N(CCO)C1CCCCC1` [No. 1, 6-{3-[N-(2-hydroxyethyl)-N-cyclohexylaminocarbonyl]propoxy}carbostyril] was tested. Which activation at 3 nmol ([1]; dosage 3 n mol) did it give?
Answer: The activation at 3 nmol was 8.2%.

Question: And the activation at 30 nmol ([1]; dosage 30 n mol)?
Answer: Its activation at 30 nmol is 54.5%.

Question: What about the “Increasing effect of heart rate” value (Wistar strain male rats) of the same compound?
Answer: The value was 42 Beat/min.

Question: What about the inhibition at 10 µM ([2]; concentration of the test compound solution 10^-5 mole) of the same compound?
Answer: The inhibition at 10 µM was 100%.

Question: What about the inhibition at 1 µM ([2]; concentration of the test compound solution 10^-6 mole) of the same compound?
Answer: The inhibition at 1 µM was 100%.

Question: And the inhibition at 0.1 µM ([2]; concentration of the test compound solution 10^-7 mole)?
Answer: The inhibition at 0.1 µM was 60.1%.

Question: What about the “Maximum blood pressure after the administration (difference)” value (“Maximum blood pressure … (difference)” below) ([3]; 1 hour) of the same compound?
Answer: The value was -27.0 ± 14.0 mmHg.

Question: And the “Maximum blood pressure … (difference)” value ([3]; 2 hours)?
Answer: Its value is -28.6 ± 16.4 mmHg.

Question: And the “Maximum blood pressure … (difference)” value ([3]; 4 hours)?
Answer: The value was -32.4 ± 15.2 mmHg.

Question: And the “Maximum blood pressure … (difference)” value ([3]; 6 hours)?
Answer: The value was -35.0 ± 11.5 mmHg.

Question: And the “Maximum blood pressure … (difference)” value ([3]; 8 hours)?
Answer: The value was -41.3 ± 17.2 mmHg.
